Data published in PubChem BioAssay (NCI).
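Method: 48-hour compound exposure of cells in 96-well plates, five concentrations, linear interpolation of endpoints. Here, GI50 denotes the concentration required for 50% inhibition of growth. The concentration for full growth arrest is given as TGI.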

Assays:
Assay in all cases: growth of human tumour cells (NCI), 48 h
[1] = system: SF-268 CNS
[2] = system: HCT-15 colon
[3] = system: RPMI-8226 leukemia
[4] = system: OVCAR-8 ovarian
[5] = system: SNB-19 CNS
[6] = system: IGROV1 ovarian
[7] = system: SNB-75 CNS
[8] = system: 786-0 renal
[9] = system: SK-OV-3 ovarian
[10] = system: KM12 colon
[11] = system: A498 renal
[12] = system: SF-295 CNS
[13] = system: T-47D breast
[14] = system: HOP-62 NSCLC
[15] = system: OVCAR-4 ovarian
[16] = system: HS 578T breast
[17] = system: UO-31 renal
[18] = system: SK-MEL-2 melanoma
[19] = system: SR leukemia
[20] = system: PC-3 prostate
[21] = system: SN12C renal
[22] = system: UACC-257 melanoma
[23] = system: U251 CNS
[24] = system: SF-539 CNS
[25] = system: NCI/ADR-RES ovarian
[26] = system: MDA-MB-231 breast
[27] = system: K-562 leukemia
[28] = system: COLO 205 colon
[29] = system: ACHN renal
[30] = system: EKVX NSCLC
[31] = system: CCRF-CEM leukemia
[32] = system: DU-145 prostate
[33] = system: HCT-116 colon
[34] = system: CAKI-1 renal
[35] = system: OVCAR-3 ovarian
[36] = system: RXF 393 renal
[37] = system: M14 melanoma
[38] = system: HL-60(TB) leukemia
[39] = system: A549 NSCLC
[40] = system: HOP-92 NSCLC
[41] = system: NCI-H522 lung
[42] = system: TK-10 renal
[43] = system: SW-620 colon
[44] = system: MOLT-4 leukemia
[45] = system: MDA-MB-435
[46] = system: NCI-H460 lung
[47] = system: NCI-H226 lung
[48] = system: MALME-3M melanoma
[49] = system: SK-MEL-28 melanoma
[50] = system: UACC-62 melanoma
[51] = system: HT29 colon
[52] = system: BT-549 breast
[53] = system: LOX IMVI melanoma
[54] = system: MCF7 breast
[55] = system: OVCAR-5 ovarian
[56] = system: HCC-2998 colon
[57] = system: SK-MEL-5 melanoma
[58] = system: NCI-H23 lung
[59] = system: MDA-N

For `CN(c1ccccc1)c1c2ccccc2nc2[nH]c3ccccc3c12`, the GI50 [1] was 3.41 µM, the TGI [1] was 15.2 µM and the GI50 [2] was 2730 nM. For the same compound, the TGI [2] was > 31.9 µM, the GI50 [3] was 1490 nM and the TGI [3] was 3.92 µM. The GI50 [4] was 2460 nM, the TGI [4] was > 29.3 µM and the GI50 [5] was 3.77 µM. It also gave a TGI [5] of 15.5 µM, a GI50 [6] of 1790 nM and a GI50 [7] of 3.04 µM. It also gave a TGI [7] of 15.1 µM, a GI50 [8] of 1760 nM and a TGI [8] of 4.33 µM. It also gave a GI50 [9] of 3.75 µM, a TGI [9] of 14.1 µM and a GI50 [10] of 2240 nM. For the same compound, the TGI [10] was 7.4 µM, the GI50 [11] was 2040 nM and the TGI [11] was 5.32 µM. The GI50 [12] was 2440 nM, the TGI [12] was 5.76 µM and the GI50 [13] was 3.84 µM. The TGI [13] was 32.6 µM, the GI50 [14] was 1960 nM and the TGI [14] was 5.97 µM. For the same compound, the GI50 [15] was 4.42 µM, the TGI [15] was > 48.7 µM and the GI50 [16] was 3.06 µM. For the same compound, the TGI [16] was 12.9 µM, the GI50 [17] was 1220 nM and the TGI [17] was 3.66 µM. The GI50 [18] was 7.71 µM, the GI50 [19] was 336 nM and the TGI [19] was > 100 µM. For the same compound, the GI50 [20] was 2780 nM, the TGI [20] was 14.7 µM and the GI50 [21] was 1680 nM. For the same compound, the TGI [21] was 5.06 µM, the GI50 [22] was 6.54 µM and the TGI [22] was 21.4 µM. The GI50 [23] was 1680 nM, the TGI [23] was > 25.5 µM and the GI50 [24] was 1910 nM. For the same compound, the TGI [24] was 4.59 µM, the GI50 [25] was 7.79 µM and the TGI [25] was > 47.8 µM. The GI50 [26] was 1930 nM, the TGI [26] was 4.63 µM and the GI50 [27] was 2410 nM. For the same compound, the TGI [27] was > 56.8 µM, the GI50 [28] was 3.45 µM and the TGI [28] was 16.1 µM. The GI50 [29] was 1430 nM, the TGI [29] was 3.2 µM and the GI50 [30] was 5.04 µM. The TGI [30] was 21 µM, the GI50 [31] was 1270 nM and the TGI [31] was > 100 µM. It also gave a GI50 [32] of 1440 nM, a TGI [32] of 8.76 µM and a GI50 [33] of 2890 nM. For the same compound, the TGI [33] was 8.72 µM, the GI50 [34] was 1920 nM and the TGI [34] was 5.92 µM. It also gave a GI50 [35] of 2000 nM, a TGI [35] of 6.01 µM and a GI50 [36] of 2110 nM. It also gave a TGI [36] of 38.7 µM, a GI50 [37] of 2210 nM and a TGI [37] of 4.43 µM. The GI50 [38] was 985 nM, the TGI [38] was 6.25 µM and the GI50 [39] was 943 nM. For the same compound, the TGI [39] was 3.27 µM, the GI50 [40] was 1790 nM and the TGI [40] was 6.46 µM. For the same compound, the GI50 [41] was 3.56 µM, the TGI [41] was 14.9 µM and the GI50 [42] was 1260 nM. For the same compound, the TGI [42] was 3.5 µM, the GI50 [43] was 2040 nM and the TGI [43] was 8.82 µM. For the same compound, the GI50 [44] was 841 nM, the TGI [44] was > 29.6 µM and the GI50 [45] was 3.26 µM. For the same compound, the TGI [45] was 9.25 µM, the GI50 [46] was 1160 nM and the TGI [46] was 10.3 µM. For the same compound, the GI50 [47] was 1910 nM, the TGI [47] was 4.44 µM and the GI50 [48] was 2240 nM. It also gave a TGI [48] of 5.72 µM, a GI50 [49] of 2080 nM and a TGI [49] of 7.42 µM. It also gave a GI50 [50] of 1500 nM, a TGI [50] of 4.21 µM and a GI50 [51] of 3.83 µM. For the same compound, the TGI [51] was > 100 µM, the GI50 [52] was 4.36 µM and the TGI [52] was 13.1 µM. For the same compound, the GI50 [53] was 1430 nM, the TGI [53] was 4 µM and the GI50 [54] was 769 nM. For the same compound, the GI50 [55] was 12.6 µM, the TGI [55] was 39.5 µM and the GI50 [56] was 3.05 µM. The TGI [56] was 12.1 µM, the GI50 [57] was 1620 nM and the TGI [57] was 3.56 µM. For the same compound, the GI50 [58] was 6.4 µM and the TGI [58] was 28.7 µM.
With `NS(=O)(=O)c1cc2c(cc1Cl)NCNS2(=O)=O` the TGI [1] was > 100 µM, the TGI [2] was > 100 µM and the TGI [3] was > 100 µM. For the same compound, the TGI [4] was > 100 µM, the TGI [5] was > 100 µM and the TGI [6] was > 100 µM. The TGI [7] was > 100 µM, the TGI [8] was > 100 µM and the TGI [10] was > 100 µM. The TGI [12] was > 100 µM, the TGI [13] was > 100 µM and the TGI [14] was > 100 µM. For the same compound, the TGI [15] was > 100 µM, the TGI [16] was > 100 µM and the TGI [17] was > 100 µM. For the same compound, the TGI [18] was > 100 µM, the TGI [19] was > 100 µM and the TGI [20] was > 100 µM. For the same compound, the TGI [21] was > 100 µM, the TGI [22] was > 100 µM and the TGI [23] was > 100 µM. For the same compound, the TGI [24] was > 100 µM, the TGI [25] was > 100 µM and the TGI [26] was > 100 µM. The TGI [27] was > 100 µM, the TGI [28] was > 100 µM and the TGI [29] was > 100 µM. For the same compound, the TGI [30] was > 100 µM, the TGI [31] was > 100 µM and the TGI [32] was > 100 µM. The TGI [33] was > 100 µM, the TGI [34] was > 100 µM and the TGI [35] was > 100 µM. The TGI [37] was > 100 µM, the TGI [38] was > 100 µM and the TGI [39] was > 100 µM. For the same compound, the TGI [40] was > 100 µM, the TGI [41] was > 100 µM and the TGI [42] was > 100 µM. For the same compound, the TGI [43] was > 100 µM, the TGI [44] was > 100 µM and the TGI [45] was > 100 µM. For the same compound, the TGI [46] was > 100 µM, the TGI [47] was > 100 µM and the TGI [48] was > 100 µM. The TGI [49] was > 100 µM, the TGI [51] was > 100 µM and the TGI [53] was > 100 µM. For the same compound, the TGI [54] was > 100 µM, the TGI [59] was > 100 µM and the TGI [55] was > 100 µM. For the same compound, the TGI [56] was > 100 µM, the TGI [57] was > 100 µM and the TGI [58] was > 100 µM.
In the case of `NC(Cc1cc(I)c(Oc2ccc(O)c(I)c2)c(I)c1)C(=O)O` (stereo not drawn), the TGI [1] is reported as > 100 µM, the TGI [2] is reported as > 100 µM and the TGI [3] is reported as 84 µM. The TGI [4] was > 100 µM, the TGI [5] was > 100 µM and the TGI [6] was > 100 µM. For the same compound, the TGI [7] was > 100 µM, the TGI [8] was > 100 µM and the TGI [9] was > 100 µM. For the same compound, the TGI [10] was > 100 µM, the TGI [11] was 92.6 µM and the TGI [12] was > 100 µM. For the same compound, the TGI [13] was > 100 µM, the TGI [14] was > 100 µM and the TGI [15] was > 100 µM. For the same compound, the TGI [16] was > 100 µM, the TGI [17] was > 100 µM and the TGI [18] was 41 µM. For the same compound, the TGI [20] was > 100 µM, the TGI [21] was > 100 µM and the TGI [22] was > 100 µM. The TGI [23] was > 100 µM, the TGI [25] was > 100 µM and the TGI [26] was > 100 µM. The TGI [28] was > 100 µM, the TGI [29] was > 100 µM and the TGI [30] was > 100 µM. For the same compound, the TGI [32] was > 100 µM, the TGI [33] was > 100 µM and the TGI [34] was > 100 µM. The TGI [35] was > 100 µM, the TGI [36] was > 100 µM and the TGI [37] was > 100 µM. For the same compound, the TGI [39] was > 100 µM, the TGI [40] was > 100 µM and the TGI [41] was > 100 µM. The TGI [42] was > 100 µM, the TGI [43] was > 100 µM and the TGI [45] was > 100 µM. For the same compound, the TGI [47] was > 100 µM, the TGI [48] was > 100 µM and the TGI [49] was > 100 µM. The TGI [50] was > 100 µM, the TGI [51] was > 100 µM and the TGI [52] was > 100 µM. For the same compound, the TGI [53] was > 100 µM, the TGI [54] was > 100 µM and the TGI [59] was > 100 µM. For the same compound, the TGI [55] was > 100 µM, the TGI [57] was > 100 µM and the TGI [58] was > 100 µM.
